Measurements as given in paper PMC10714432 (ACS Pharmacology & Translational Science, 2023).

Target: PDE5A1 (Homo sapiens, UniProt O76074)
Assay: cGMP hydrolysis by purified PDE5A1, cGMP Lumit bioluminescent readout
Format: biochemical

- IC50: 3.8 µM
SMILES: CC(C)Cn1c(=O)n(C)c(=O)c2[nH]cnc21 [IBMX]
